The subject of test [1] is Bacteroides fragilis. In words: Agar dilution MIC, 30 clinical isolates. It is filed as cell-based. The note with it: for Mode: modal MIC.
For test [2], the system named is Prevotella spp. Kind of test: Agar dilution MIC, 30 clinical isolates. Type of test: cell-based. The note with it: for Mode: modal MIC. (In general: In agar dilution, organisms are placed on agar that contains the substance at set levels.)
Test [3] has as its system E. coli, Streptococcus spp., and Bacteroides spp. isolates. It is filed as cell-based. The conditions noted are these: across the evaluated isolates. The procedure:
(§1) Initial values of the MIC were determined by agar dilution in accordance with guidelines from the Clinical and Laboratory Standards Institute (CLSI; (1) “Methods for Dilution Antimicrobial Susceptibility Tests for Bacteria That Grow Aerobically; Approved Standard; 11th ed.,” CLSI standard M07, 2018; (2) “Methods for Antimicrobial Susceptibility Testing of Anaerobic Bacteria; Approved Standard—Eighth Edition,” CLSI document M11-A8, 2012.).
(§2) If there were no colonies on the antibiotic selection plates, the spontaneous mutation frequency was reported as less than the frequency observed with one colony to indicate that the spontaneous mutation frequency was less than the limit of detection (one CFU). […] The mutation prevention concentration (MPC) was reported as the lowest concentration for which no mutants were selected.

Test [4] relates to E. coli (ATCC 25922, ATCC 35218, MMX 1312). In words: Spontaneous mutation frequency assay. It is filed as cell-based, Escherichia coli. The conditions noted are these: selection at 4× and 8× MIC, meropenem/ceftriaxone: isolates other than MMX 1312. The procedure: as §1
The agar plates were prepared by mixing a ratio of 1.0 mL of concentrated drug to 49.0 mL of the appropriate molten (47° C.) agar; the drug-supplemented agar was mixed, poured into 15-by-150 mm petri dishes and allowed to solidify and dry at room temperature prior to inoculation. […] Each plate was allowed to cool at room temperature for at least 1 hr.
The isolates were streaked onto the appropriate agar medium and incubated for 20 hr (aerobes) or 48 hr (Bacteroides under anaerobic conditions). Using a sterile swab, several well-isolated colonies were removed and resuspended in sterile saline at a heavy cell density. Each plate was inoculated with 0.5 mL of the cell suspension (each test concentration was inoculated in duplicate). The target inoculum for each spontaneous mutation plate was 10^9-10 CFU. In addition, a portion of the inoculum from each isolate was enumerated by making dilutions, spreading on agar and counting colonies.
Once the inoculum was absorbed into the agar, the plates were incubated at 35° C. Aerobes were examined at 24 and 48 hr, and resulting colonies were counted. Bacteroides were incubated anaerobically for 48-72 hr in the anaerobe chamber and colonies were counted.
Colony counts from plates used to enumerate the initial inoculum density and from the resulting spontaneous mutation frequency test plates were determined. The inoculum size was calculated as CFU inoculated per plate. The spontaneous mutation frequency was calculated using the counts from duplicate spontaneous mutation assay test plates as follows:
as §2

The test system of test [5] is S. agalactiae ATCC 13813. Kind of test: Time-kill assay. Type of test: cell-based, Streptococcus agalactiae. The conditions noted are these: 2×, 4×, 8× MIC; 2, 6, 24 hr.
For test [6], the system named is Streptococcus spp. (S. pneumoniae ATCC 49619, S. pyogenes ATCC 49399, S. agalactiae ATCC 13813). Kind of test: Agar dilution MIC (spontaneous mutation study; strain in conditions). It is filed as cell-based.
In test [7] the test system is S. pyogenes. In words: Spontaneous mutation frequency and mutation prevention concentration (MPC). Type of test: cell-based. The conditions noted are these: S. pyogenes ATCC 49399. From the text: (§3) As used herein, “spontaneous mutation frequency” refers to the rate at which mutations arise in a bacterium that can lead to resistance to develop to an antimicrobial agent. “Mutation prevention concentration” or “MPC” refers to the lowest concentration of antimicrobial agent above which the selective proliferation of resistant mutants is expected to occur only rarely.

The subject of test [8] is B. vulgatus. The description is as above. The conditions noted are these: B. vulgatus ATCC 8482. It is filed as cell-based.
From the text: as §3

In test [9] the test system is Escherichia coli. The description is as above. It is filed as cell-based.
From the text: as §3

For test [10], the system named is S. pneumonia. The description is as above. It is filed as cell-based. The conditions noted are these: S. pneumoniae ATCC 49619.
From the text: as §3

The test system of test [11] is S. agalactiae. The test is described as above. Type of test: cell-based. The note with it: S. agalactiae ATCC 13813.
From the text: as §3

Test [12] has as its system B. vulgatus ATCC 8482. In words: Broth microdilution MIC (time-kill study). Type of test: cell-based, Bacteroides vulgatus. On the technique in general: Dilution methods test growth across graded concentrations, often in twofold steps.
Test [13] relates to SIBO Bacteria. The conditions noted are these: cited from earlier work.
[14] abbreviates: 30 Bacteroides fragilis clinical isolates.
[15] abbreviates: 30 Prevotella spp. clinical isolates.
Setting [16] is: rifaximin selection 4X MIC, 0.5 μg/mL.
Setting [17] is: rifaximin selection 8X MIC, 1 μg/mL.
Where [18] appears, read: E. coli ATCC 25922, rifaximin selection 4X MIC, 32 μg/mL.
Setting [19] is: E. coli ATCC 25922, rifaximin selection 8X MIC, 64 μg/mL.
Setting [20] is: E. coli ATCC 35218, rifaximin selection 4X MIC, 32 μg/mL, estimated by counting a quarter of the plate.
Setting [21] is: E. coli ATCC 35218, rifaximin selection 8X MIC, 64 μg/mL, estimated by counting a quarter of the plate.
Setting [22] is: E. coli MMX 1312, rifaximin selection 4X MIC, 16 μg/mL.
The mark [23] stands for this setting: E. coli MMX 1312, rifaximin selection 8X MIC, 32 μg/mL.
Where [24] appears, read: rifaximin selection 4X MIC, 1 μg/mL.
The mark [25] stands for this setting: rifaximin selection 8X MIC, 2 μg/mL.

As a reminder, the MIC50 is an inhibitory concentration at the 50% level, which refers to growth in some studies and to a panel of isolates in others. Read a low MIC50 as higher susceptibility. By MIC90 is commonly meant an inhibitory concentration at the 90% level, which refers to growth in some studies and to a panel of isolates in others. The low end stands for higher susceptibility, the high end for lower susceptibility. Broadly, the MIC is the lowest concentration found to suppress growth.

≈ marks a conversion by molar mass, not a printed value. Like-named read-outs stand apart in the source and are kept apart here.

Take `Cc1ncc([N+](=O)[O-])n1CCO` [MTZ]: in test [1] (setting [14]), the “% S” value is listed as 100%, the MIC50 is 1 µg/mL (≈ 5.84 µM), the MIC90 amounted to 2 µg/mL (≈ 11.7 µM) and the MIC range lay in the range of 0.25 to 2 µg/mL. In test [1] (setting [14]), the Mode is 1 µg/mL. In test [2] (setting [15]), the “% R” value is listed as 3%, the “% S” value is 97%, the MIC50 stood at 1 µg/mL (≈ 5.84 µM) and the MIC90 was found to be 8 µg/mL (≈ 46.7 µM). In [2] (setting [15]), this compound had an MIC range of 0.12 to 32 µg/mL and a Mode of 1 µg/mL.

Take `CO[C@H]1/C=C/O[C@@]2(C)Oc3c(C)c(O)c4c(O)c(c5c(nc6cc(C)ccn65)c4c3C2=O)NC(=O)/C(C)=C\C=C\[C@H](C)[C@H](O)[C@@H](C)[C@@H](O)[C@@H](C)[C@H](OC(C)=O)[C@@H]1C` [rifaximin]: the MIC50 in [1] was 0.25 µg/mL (≈ 0.318 µM); in [1] (setting [14]), 0.25 µg/mL (≈ 0.318 µM); in test [2] it was 0.12 µg/mL (≈ 0.153 µM); in test [2] (setting [15]), 0.12 µg/mL (≈ 0.153 µM). For the same compound, the MIC90 in test [1] was 0.25 µg/mL (≈ 0.318 µM); in test [1] (setting [14]), 0.25 µg/mL (≈ 0.318 µM); in [2] it was 1 µg/mL (≈ 1.27 µM); in test [2] (setting [15]) it was 1 µg/mL (≈ 1.27 µM). Moreover, the “relative activity among drugs tested” value in test [1] is “meropenem and rifaximin had similar activity”. In addition, the Mode in test [1] (setting [14]) is 0.25 µg/mL; in test [2] (setting [15]), 0.12 µg/mL. The compound further returned an MIC range in test [2] (setting [15]) of 0.03 to 32 µg/mL. The MPC values entry in test [3] was “In no instance was an MPC able to be reported”. Besides, the Spontaneous Mutation Frequency in test [4] was > 2.37×10^−8; in [4] (listed as rifampin), ~10^−8; in test [7] (setting [16]) it was 1.51 × 10^−8; in test [7] (setting [17]) it was 1.53 × 10^−8; in test [8] (setting [16]), 8.70 × 10^−10; in test [8] (setting [17]) it was 6.96 × 10^−10. Besides, the “Spontaneous Mutation Frequency” value is on record as >2.24 × 10^−8 in test [9] (E. coli ATCC 25922, rifaximin selection 4X MIC, 32 μg/mL, based on estimated count of >500 average CFU); >2.24 × 10^−8 in test [9] (E. coli ATCC 25922, rifaximin selection 8X MIC, 64 μg/mL, based on estimated count of >500 average CFU); 2.37 × 10^−8 in test [9] (E. coli ATCC 35218, rifaximin selection 4X MIC, 32 μg/mL); 1.15 × 10^−8 in [9] (E. coli ATCC 35218, rifaximin selection 8X MIC, 64 μg/mL); >2.06 × 10^−8 in [9] (E. coli MMX 1312, rifaximin selection 4X MIC, 16 μg/mL, based on estimated count of >500 average CFU); >2.06 × 10^−8 in test [9] (E. coli MMX 1312, rifaximin selection 8X MIC, 32 μg/mL, based on estimated count of >500 average CFU). In addition, the entries for the “Spontaneous Mutation Frequency” value in test [11] (setting [24]) and in [11] (setting [25]) were 2.77 × 10^−8 and 2.00 × 10^−8, respectively. In test [5], the “time-kill kinetics outcome (bactericidal = ≥3 log reduction in CFU per mL)” value is “bacteriostatic effect at 4× and 8× the MIC”. The figures for the “Agar MIC” value in [6] (S. agalactiae ATCC 13813), in [6] (S. pneumoniae ATCC 49619) and in test [6] (S. pyogenes ATCC 49399) were 0.25 µg/mL, 0.03 µg/mL and 0.12 µg/mL, respectively. The “MIC values (agar dilution)” value in test [6] (over evaluated Streptococcus spp. (range stated jointly with other groups)) lay in the range of 0.03 to 0.5 µg/mL. For the same compound, the MFC in test [7] was more than 1 µg/mL; in test [8], more than 1 µg/mL; in test [9] (E. coli ATCC 25922) it was more than 64 µg/mL; in test [9] (E. coli ATCC 35218), more than 64 µg/mL; in [9] (E. coli MMX 1312), more than 32 µg/mL; in [10] it was more than 0.25 µg/mL. Besides, the MFC in test [11] is more than 2 µg/mL. Besides, the “Average Count” value was 83 CFU in test [7] (setting [16]); 84 CFU in test [7] (setting [17]); 5 CFU in [8] (setting [16]); 4 CFU in test [8] (setting [17]); “TNTC” in test [9] (setting [18]); “TNTC” in [9] (setting [19]). In addition, the “Average Count” value is on record as 688^2 CFU in test [9] (setting [20]); 332^1 CFU in test [9] (setting [21]); “TNTC” in test [9] (setting [22]); “TNTC” in [9] (setting [23]); 159 CFU in [11] (setting [24]); 115 CFU in [11] (setting [25]). Further, the “Count 1” value in [7] (setting [16]) is 78 CFU; in [7] (setting [17]) it was 78 CFU; in test [8] (setting [16]), 6 CFU; in test [8] (setting [17]) it was 2 CFU; in [9] (setting [18]), “TNTC”; in test [9] (setting [19]) it was “TNTC”. In addition, the “Count 1” value was 360^1 CFU in test [9] (setting [21]); “TNTC” in [9] (setting [22]); “TNTC” in test [9] (setting [23]); 180 CFU in [11] (setting [24]); 110 CFU in test [11] (setting [25]). Further, the “Count 2” value in test [7] (setting [16]) is listed as 87 CFU; in test [7] (setting [17]) it was 89 CFU; in [8] (setting [16]) it was 4 CFU; in [8] (setting [17]) it was 5 CFU; in [9] (setting [18]) it was “TNTC”; in test [9] (setting [19]), “TNTC”. For the same compound, the “Count 2” value was 600^1 CFU in test [9] (setting [20]); 304^1 CFU in test [9] (setting [21]); “TNTC” in test [9] (setting [22]); “TNTC” in test [9] (setting [23]); 137 CFU in test [11] (setting [24]); 120 CFU in [11] (setting [25]). Moreover, the MIC in test [12] (B. vulgatus ATCC 8482) and in test [12] (broth microdilution) was 0.25 µg/mL (≈ 0.318 µM) in each case.

Take `CN[C@H](CC(C)C)C(=O)N[C@H]1C(=O)N[C@@H](CC(N)=O)C(=O)N[C@H]2C(=O)N[C@H]3C(=O)N[C@H](C(=O)N[C@H](C(=O)O)c4cc(O)cc(O)c4-c4cc3ccc4O)[C@H](O)c3ccc(c(Cl)c3)Oc3cc2cc(c3O[C@@H]2O[C@H](CO)[C@@H](O)[C@H](O)[C@H]2O[C@H]2C[C@](C)(N)[C@H](O)[C@H](C)O2)Oc2ccc(cc2Cl)[C@H]1O` [vancomycin, Vancomycin]: the MIC in test [12] (Phocaeicola vulgatus, ATCC8482, B. vulgatus ATCC 8482, read-out: MIC) is more than 16 µg/mL.

In the case of “piperacillin/tazobactam [piperacillin-tazobactam]”, the “activity against SIBO organisms” value in [13] is recorded as “active against SIBO organisms”. In [12] (B. vulgatus ATCC 8482), this compound had an MIC of 4 µg/mL.
